Test results taken from article PMC4422947 (Acta Pharmacologica Sinica, 2015).

What was measured:
[1] = assay type: in vivo, rat; conditions: after iv or po administration of tanshinol; data not shown
CYP2A6 = target: T1, CYP2A6 (Homo sapiens, UniProt P11509); test: Inhibition of cDNA-expressed human CYP2A6; assay type: in vitro ADME; conditions: CYP2A6, coumarin 7-hydroxylation
T1 sequence (P11509 1-494): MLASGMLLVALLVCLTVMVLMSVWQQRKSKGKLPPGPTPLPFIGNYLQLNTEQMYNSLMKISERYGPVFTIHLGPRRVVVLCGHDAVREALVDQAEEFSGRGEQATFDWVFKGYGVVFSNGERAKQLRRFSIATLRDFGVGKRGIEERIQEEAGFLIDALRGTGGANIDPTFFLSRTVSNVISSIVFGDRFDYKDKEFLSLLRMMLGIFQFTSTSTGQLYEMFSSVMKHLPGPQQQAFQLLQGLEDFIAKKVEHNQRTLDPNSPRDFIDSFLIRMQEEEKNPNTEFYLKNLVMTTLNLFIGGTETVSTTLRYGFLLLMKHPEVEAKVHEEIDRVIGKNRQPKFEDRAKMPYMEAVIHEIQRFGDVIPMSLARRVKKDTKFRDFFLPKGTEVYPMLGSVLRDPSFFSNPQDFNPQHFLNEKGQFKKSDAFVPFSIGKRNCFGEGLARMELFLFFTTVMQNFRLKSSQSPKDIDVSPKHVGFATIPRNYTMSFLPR

CYP2B6 = target: T2, CYP2B6 (Homo sapiens, UniProt P20813); test: Inhibition of cDNA-expressed human CYP2B6; assay type: in vitro ADME; conditions: CYP2B6, 7-ethoxy-4-trifluoromethylcoumarin O-deethylation
T2 sequence (P20813 1-491): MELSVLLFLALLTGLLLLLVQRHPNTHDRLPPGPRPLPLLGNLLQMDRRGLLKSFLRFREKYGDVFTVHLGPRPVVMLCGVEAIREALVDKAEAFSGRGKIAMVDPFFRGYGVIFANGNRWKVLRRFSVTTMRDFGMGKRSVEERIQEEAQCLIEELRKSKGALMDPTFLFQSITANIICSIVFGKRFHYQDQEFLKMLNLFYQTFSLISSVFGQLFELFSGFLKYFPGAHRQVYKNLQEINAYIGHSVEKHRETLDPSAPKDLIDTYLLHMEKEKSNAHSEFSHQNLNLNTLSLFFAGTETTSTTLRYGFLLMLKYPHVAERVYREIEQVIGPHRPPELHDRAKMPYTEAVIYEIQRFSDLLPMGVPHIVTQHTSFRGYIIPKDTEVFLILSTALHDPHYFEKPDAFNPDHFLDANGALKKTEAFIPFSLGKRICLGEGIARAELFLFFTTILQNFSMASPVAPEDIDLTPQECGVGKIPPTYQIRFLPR

Compound | Detection in rat samples [1] | IC50 (CYP2A6) | IC50 (CYP2B6)
8-O-methyltanshinol | not detected | – | –
N[C@@H]1C[C@H]1c1ccccc1 (racemic) [tranylcypromine] | – | 70 nM | 5900 nM
COC(=O)C(O)Cc1ccc(O)c(O)c1 (stereo not shown) [tanshinol methyl ester] | not detected | – | –
